What was measured:
Assay in all cases: Bliss interaction score (quartile over a dose matrix) (fitness difference); higher = more antagonism (negative = synergy)
S. aureus DSM 20231 = test system: S. aureus DSM 20231
How it was run: (§1)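 Each OD595 reading at entry into stationary phase was scaled to the robust mean of the untreated wells on its plate, with a ceiling of 1. These ratios define fitness, and single-drug fitness was inferred from combinations. The Bliss score compares observed fitness with the product-based expectation and is reported as quartiles across all replicate types, technical, biological and donor/recipient.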

B. subtilis 168 = test system: B. subtilis 168
How it was run: as §1

S. pneumoniae D39V = test system: S. pneumoniae D39V
How it was run: as §1

S. aureus Newman = test system: S. aureus Newman
How it was run: as §1
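Also: first quartile when negative (synergy) and third quartile when positive (antagonism).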

With `CN[C@H](CC(C)C)C(=O)N[C@H]1C(=O)N[C@@H](CC(N)=O)C(=O)N[C@H]2C(=O)N[C@H]3C(=O)N[C@H](C(=O)N[C@H](C(=O)O)c4cc(O)cc(O)c4-c4cc3ccc4O)[C@H](O[C@H]3C[C@](C)(N)[C@@H](O)[C@H](C)O3)c3ccc(c(Cl)c3)Oc3cc2cc(c3O[C@@H]2O[C@H](CO)[C@@H](O)[C@H](O)[C@H]2O[C@H]2C[C@](C)(NCc3ccc(-c4ccc(Cl)cc4)cc3)[C@@H](O)[C@H](C)O2)Oc2ccc(cc2Cl)[C@H]1O` [Oritavancin] + COc1ccc(C[C@H](N)C(=O)N[C@H]2[C@@H](O)[C@H](n3cnc4c(N(C)C)ncnc43)O[C@@H]2CO)cc1 [Puromycin] the Bliss interaction score (S. aureus DSM 20231) was -0.0699, the Bliss interaction score (B. subtilis 168) was 0.0232 and the Bliss interaction score (S. pneumoniae D39V) was 0.0762. For the same molecule, the Bliss interaction score (S. aureus Newman) was -0.0754.
Molecule `CO[C@@]12[C@H](COC(N)=O)C3=C(C(=O)C(C)=C(N)C3=O)N1C[C@@H]1N[C@@H]12` [MitomycinC] + CCN(CC)CCOC(=O)c1ccc(N)cc1 [Procaine] has a Bliss interaction score (S. aureus DSM 20231) of 0.0322, a Bliss interaction score (B. subtilis 168) of 0.0575 and a Bliss interaction score (S. pneumoniae D39V) of 0.0639. For the same molecule, the Bliss interaction score (S. aureus Newman) was 0.0275.
Molecule `CO[C@@]12[C@H](COC(N)=O)C3=C(C(=O)C(C)=C(N)C3=O)N1C[C@@H]1N[C@@H]12` [MitomycinC] + CN[C@H](CC(C)C)C(=O)N[C@H]1C(=O)N[C@@H](CC(N)=O)C(=O)N[C@H]2C(=O)N[C@H]3C(=O)N[C@H](C(=O)N[C@H](C(=O)O)c4cc(O)cc(O)c4-c4cc3ccc4O)[C@H](O)c3ccc(c(Cl)c3)Oc3cc2cc(c3O[C@@H]2O[C@H](CO)[C@@H](O)[C@H](O)[C@H]2O[C@H]2C[C@](C)(N)[C@H](O)[C@H](C)O2)Oc2ccc(cc2Cl)[C@H]1O [Vancomycin] has a Bliss interaction score (S. aureus DSM 20231) of 0.0497, a Bliss interaction score (B. subtilis 168) of 0.0157 and a Bliss interaction score (S. pneumoniae D39V) of 0.124. For the same molecule, the Bliss interaction score (S. aureus Newman) was -0.0526.
Molecule `CC[C@H]1OC(=O)[C@H](C)[C@@H](O[C@H]2C[C@@](C)(OC)[C@@H](O)[C@H](C)O2)[C@H](C)[C@@H](O[C@@H]2O[C@H](C)C[C@H](N(C)C)[C@H]2O)[C@](C)(O)C[C@@H](C)C(=O)[C@H](C)[C@@H](O)[C@]1(C)O` [Erythromycin] + CO[C@@]12[C@H](COC(N)=O)C3=C(C(=O)C(C)=C(N)C3=O)N1C[C@@H]1N[C@@H]12 [MitomycinC] has a Bliss interaction score (S. aureus DSM 20231) of -0.048, a Bliss interaction score (B. subtilis 168) of 0.0799 and a Bliss interaction score (S. pneumoniae D39V) of -0.0897. It also gave a Bliss interaction score (S. aureus Newman) of 0.0538.
`CO[C@@]12[C@H](COC(N)=O)C3=C(C(=O)C(C)=C(N)C3=O)N1C[C@@H]1N[C@@H]12` [MitomycinC] + CCC(C)C1C(=O)NC(=C)C(=O)NC(C(=O)NC(CSCC(C(=O)N1)NC(=O)/C(=C/C)/NC(=O)C(C(C)CC)N)C(=O)NC2C(SCC(NC(=O)CNC(=O)C3CCCN3C2=O)C(=O)NC(CCCCN)C(=O)NC4C(SCC(NC(=O)CNC(=O)C(NC(=O)C(NC(=O)C(NC(=O)CNC4=O)C)CC(C)C)CCSC)C(=O)NC(CC(=O)N)C(=O)NC(CCSC)C(=O)NC(CCCCN)C(=O)NC5C(SCC6C(=O)NC(C(=O)NC(CSC(C(C(=O)N6)NC(=O)C(NC5=O)C)C)C(=O)NC(CO)C(=O)NC(C(C)CC)C(=O)NC(CC7=CN=CN7)C(=O)NC(C(C)C)C(=O)NC(=C)C(=O)NC(CCCCN)C(=O)O)CC8=CN=CN8)C)C)C)CC(C)C [Nisin] was tested, and the Bliss interaction score (S. aureus DSM 20231; main component drawn) was -0.242, the Bliss interaction score (B. subtilis 168; main component drawn) was -0.0279 and the Bliss interaction score (S. pneumoniae D39V; main component drawn) was -0.0423. The Bliss interaction score (S. aureus Newman; main component drawn) was -0.0537.
`CC[C@H]1OC(=O)[C@H](C)[C@@H](O[C@H]2C[C@@](C)(OC)[C@@H](O)[C@H](C)O2)[C@H](C)[C@@H](O[C@@H]2O[C@H](C)C[C@H](N(C)C)[C@H]2O)[C@](C)(O)C[C@@H](C)C(=O)[C@H](C)[C@@H](O)[C@]1(C)O` [Erythromycin] + C[C@@H]1O[C@@H]1P(=O)(O)O [Fosfomycin] showed a Bliss interaction score (S. aureus DSM 20231) of -0.0365, a Bliss interaction score (B. subtilis 168) of 0.116 and a Bliss interaction score (S. pneumoniae D39V) of 0.0627. The Bliss interaction score (S. aureus Newman) was -0.073.
Work on `CC[C@H]1OC(=O)[C@H](C)[C@@H](O[C@H]2C[C@@](C)(OC)[C@@H](O)[C@H](C)O2)[C@H](C)[C@@H](O[C@@H]2O[C@H](C)C[C@H](N(C)C)[C@H]2O)[C@](C)(O)C[C@@H](C)C(=O)[C@H](C)[C@@H](O)[C@]1(C)O` [Erythromycin] + Oc1cc(Cl)ccc1Oc1ccc(Cl)cc1Cl [Triclosan] yielded a Bliss interaction score (S. aureus DSM 20231) of -0.0265, a Bliss interaction score (B. subtilis 168) of -0.0438 and a Bliss interaction score (S. pneumoniae D39V) of -0.0874. It also gave a Bliss interaction score (S. aureus Newman) of 0.0312.
In the case of `CC(=O)NC[C@H]1CN(c2ccc(N3CCOCC3)c(F)c2)C(=O)O1` [Linezolid] + CN(C)C(=O)C(CCN1CCC(O)(c2ccc(Cl)cc2)CC1)(c1ccccc1)c1ccccc1 [Loperamide], the Bliss interaction score (S. aureus DSM 20231) is reported as 0.116, the Bliss interaction score (B. subtilis 168) is reported as 0.0436 and the Bliss interaction score (S. pneumoniae D39V) is reported as 0.176. The Bliss interaction score (S. aureus Newman) was -0.0501.
`CC(=O)NC[C@H]1CN(c2ccc(N3CCOCC3)c(F)c2)C(=O)O1` [Linezolid] + CO[C@@]12[C@H](COC(N)=O)C3=C(C(=O)C(C)=C(N)C3=O)N1C[C@@H]1N[C@@H]12 [MitomycinC] gave a Bliss interaction score (S. aureus DSM 20231) of -0.068, a Bliss interaction score (B. subtilis 168) of 0.0314 and a Bliss interaction score (S. pneumoniae D39V) of -0.0668. For the same molecule, the Bliss interaction score (S. aureus Newman) was 0.0823.
`CC[C@H](C)[C@H](N)C1=N[C@H](C(=O)N[C@@H](CC(C)C)C(=O)N[C@H](CCC(=O)O)C(=O)N[C@H](C(=O)N[C@H]2CCCCNC(=O)[C@H](CC(N)=O)NC(=O)[C@@H](CC(=O)O)NC(=O)[C@H](Cc3cnc[nH]3)NC(=O)[C@@H](Cc3ccccc3)NC(=O)[C@H]([C@@H](C)CC)NC(=O)[C@@H](CCCN)NC2=O)[C@@H](C)CC)CS1` [Bacitracin] + CN[C@H](CC(C)C)C(=O)N[C@H]1C(=O)N[C@@H](CC(N)=O)C(=O)N[C@H]2C(=O)N[C@H]3C(=O)N[C@H](C(=O)N[C@H](C(=O)O)c4cc(O)cc(O)c4-c4cc3ccc4O)[C@H](O[C@H]3C[C@](C)(N)[C@@H](O)[C@H](C)O3)c3ccc(c(Cl)c3)Oc3cc2cc(c3O[C@@H]2O[C@H](CO)[C@@H](O)[C@H](O)[C@H]2O[C@H]2C[C@](C)(NCc3ccc(-c4ccc(Cl)cc4)cc3)[C@@H](O)[C@H](C)O2)Oc2ccc(cc2Cl)[C@H]1O [Oritavancin] was tested, and the Bliss interaction score (S. aureus DSM 20231; main component drawn) was -0.0199, the Bliss interaction score (B. subtilis 168; main component drawn) was -0.0398 and the Bliss interaction score (S. pneumoniae D39V; main component drawn) was 0.0372. It also gave a Bliss interaction score (S. aureus Newman; main component drawn) of 0.084.
For `CO[C@@]12[C@H](COC(N)=O)C3=C(C(=O)C(C)=C(N)C3=O)N1C[C@@H]1N[C@@H]12` [MitomycinC] + CN(N=O)C(=O)N[C@@H](C=O)[C@@H](O)[C@H](O)[C@H](O)CO [Streptozotocin], the Bliss interaction score (S. aureus DSM 20231) was 0.0493, the Bliss interaction score (B. subtilis 168) was -0.037 and the Bliss interaction score (S. pneumoniae D39V) was -0.0613. For the same molecule, the Bliss interaction score (S. aureus Newman) was 0.0483.

From the supplement of paper PMC10627819
